Data reported in PMC6503114, “Application of Antimicrobial Peptides of the Innate Immune System in Combination With Conventional Antibiotics—A Novel Way to Combat Antibiotic Resistance?” (Frontiers in Cellular and Infection Microbiology, 2019).
Where a SMILES comes first, the peptide text is derived from it. Bridges are numbered along the chain shown (N, C = ends).

Legend:
E. coli ML-35p = assay: microbe, parasite or virus in culture; format: cell-based, Escherichia coli; details: median of 3–6 experiments, value in square brackets = twice the maximal tested concentration
Description: Prior to the “checkerboard” synergy test the minimal inhibitory concentrations (MIC) of individual substances were determined using broth microdilution assay. Testing was performed in 60-well polystyrene Terasaki microplates with V-shaped bottom generally according to the guidelines of the European Committee for Antimicrobial Susceptibility Testing with subtle modifications designed for AMP testing (Tossi et al., [1997]; Wiegand et al., [2008]). Cultivation of bacteria was carried out in 2.1% Müller-Hinton broth at 37°C with shaking. Two-fold serial dilutions of peptides, antibiotics and other antimicrobials were made with 10 mM sodium phosphate buffer, pH 7.4, containing 0.1% of BSA. The plates were preliminary incubated with 0.1% BSA for 1 h at 37°C to reduce a non-specific binding of peptides to the plates. After that BSA was removed, and serial dilutions were added into the plate wells in triplicates followed by the same volume of the suspension of bacterial cells in logarithmic phase of growth in concentration of 1 × 10^6 CFU/ml. After the 18 h overnight incubation at 37°C, the MIC value for each compound was determined as its lowest concentration completely inhibiting the visible growth of bacteria. The final results were calculated as median values based on 3–6 independent experiments.

[1] = test system: doxorubicin-resistant K562 tumor cells
Description: (§1) The human erythromyeloid leukemia cell line K562 was obtained from the collection of the Institute of Cytology RAS (Saint Petersburg, Russia) and cultured in RPMI-1640 medium containing gentamicin (100 μg/ml) and 10% of fetal bovine serum at 37°C, 5% CO2. […] Drug resistance was maintained by monthly selection with the antibiotic (2 μg/ml in the culturing medium). Doxorubicin was removed from the medium 3 days prior to beginning any experiments. Before the testing K562 cells were washed twice with PBS and resuspended in RPMI-1640 in the same way as the other cell types.
(§2) We calculated Fractional Effective Concentration Index (FECI), which could be seen as a particular case of the interaction index (I) proposed by Berenbaum ([1977]) or of the similar combination index (CI) proposed by Chou and Talalay ([1983]), according to the equation below: […]
(§3) Here, [MEC A] and [MEC B] are the minimum effective concentrations (MEC) of substances A and B, when they are used alone. […] [A] and [B] are respective concentrations of substances A and B in their combination, where the same statistically significant difference is detected. A non-parametric Mann-Whitney U-test (p < 0.05 or p < 0.01) was used for the mentioned statistical comparison.
(§4) We have chosen the same intervals as that of FICI to determine synergy, additivity, independent action, and antagonism based on the minimal FECI values. However, in case of cytotoxic or hemolytic effect we were interested mainly in testing the possibility of additive or synergistic interaction itself, and not in assessing the exact magnitude of such interaction. Thus, in contrast to the “checkerboard titration” method used for combined antimicrobial activity investigation, studying the combined cytotoxic effect, we considered only two combinations of concentrations for the substances A and B in the mixture: • (½ MEC A + ½ MEC B), which, if found effective, provides the FECI value of 1 (the threshold value for additivity); • (¼ MEC A + ¼ MEC B), which, if found effective, provides the FECI value of 0.5 (the threshold value for synergetic interaction).
(§5) When action on tumor cells was tested in combination with antitumor antibiotic the lower concentrations up to ( 1/16 MEC A + 1/16 MEC B) as in checkerboard titration were additionally examined to assess the magnitude of synergistic effect more precisely. The final conclusion was made based on the three independent experiments.
(§6) Standard MTT-test (Mosmann, [1983]) was used for the examination of the cytotoxic activity of antimicrobial compounds and their combinations toward varied eukaryotic cells. Briefly, cell suspensions in RPMI-1640 prepared as described in Eukaryotic Cells were dispensed into the 96-well microplates (2 × 10^5 cells/well). Then, serial dilutions of AMPs, or other antibiotic compounds, or their mixtures in RPMI-1640 were added. In positive controls (100% cell survival) the according volume of RPMI-1640 without test substances was added instead. The final volume in each well was 100 μl. Negative controls (0% cell survival) were made with 100 μl of the sterile RPMI-1640. The plates were incubated at 37°C under 5% CO2 for 24 h. Four hours before the end of incubation, 10 μl of metabolic marker MTT−3-(4,5-dimethylthiazol-2-yl)-2,5-diphenyltetrazolium bromide (5 mg/ml, diluted in PBS) was added to each well. Incubation was stopped by adding 90 μl of isopropanol containing 0.04 M HCl. Content of the wells was thoroughly mixed, so that the formazan crystals, formed in case of the reduction of MTT in presence of actively metabolizing cells, were fully dissolved.

K562 = details: susceptible K562 cell line
Description: as §1, §2, §3, §4, §5, §6

Row | SMILES | MIC (E. coli ML-35p) | MEC ([1]; doxorubicin-resistant K562 cell line) [µg/mL] | enhancement in MEC values comparing susceptible and resistant cell lines ([1]; doxorubicin-resistant vs susceptible K562) [times] | MEC (K562) [µg/mL]
1 | CC[C@H](C)[C@@H]1NC(=O)[C@H](CC(C)C)NC(=O)[C@@H]2CSSC[C@@H]3NC(=O)[C@H](CO)NC(=O)[C@@H](NC(=O)[C@@H](N)C(C)C)CSSC[C@@H](C(=O)N[C@H](C(=O)N[C@@H](CCCNC(=N)N)C(=O)N[C@H](C(=O)O)C(C)C)[C@@H](C)O)NC(=O)[C@H](CSSC[C@H](NC(=O)[C@H](Cc4ccccc4)NC(=O)[C@H](C(C)C)NC(=O)[C@H](CC(C)C)NC(=O)[C@H](CCCNC(=N)N)NC3=O)C(=O)N[C@@H](CCCNC(=N)N)C(=O)N[C@@H](CCCNC(=N)N)C(=O)N[C@@H]([C@@H](C)O)C(=O)N[C@@H](CCC(=O)O)C(=O)N[C@@H](CC(C)C)C(=O)N[C@@H](CCCNC(=N)N)C(=O)N[C@@H](C(C)C)C(=O)NCC(=O)N[C@@H](CC(N)=O)C(=O)N2)NC(=O)[C@H](Cc2ccc(O)cc2)NC(=O)[C@H]([C@@H](C)O)NC(=O)[C@H](Cc2ccccc2)NC(=O)[C@H](CO)NC(=O)[C@H](C(C)C)NC(=O)CNC(=O)CNC1=O [HNP-4] (H-VCSCRLVFCRRTELRVGNCLIGGVSFTYCCTRV-OH; disulfide 2-30, 4-19, 9-29 (inferred); N-terminus and C-terminus assumed) | >100 [200] μM | – | – | –
2 | COc1cccc2c1C(=O)c1c(O)c3c(c(O)c1C2=O)C[C@@](O)(C(=O)CO)C[C@@H]3O[C@H]1C[C@H](N)[C@H](O)[C@H](C)O1 [doxorubicin] | – | 100 | 100 | 1
